Results taken from patent US20220024921A1, “1,3,4-OXADIAZOLONE COMPOUND AND PHARMACEUTICAL” (NIPPON SHINYAKU CO., LTD., priority 2018, published 2022).
Counter-ions that a name gives are not always drawn.

Tests used:
[1] = molecular target: T1, PIM1 serine/threonine kinase (Homo sapiens, UniProt P11309); assay: PIM1 serine/threonine kinase inhibitory effect; assay type: biochemical; conditions: PIM1 serine/threonine kinase activity; ATP 40 μM; 30° C., 30 minutes
T1 construct: purchased Carna Bioscience, Inc
Protocol: Each test substance was prepared to 10 mM with dimethylsulfoxide (DMSO), and further diluted with DMSO so as to have concentrations of 1000, 300, 100, 30, 10, 3, 1, 0.3, 0.1, 0.03, 0.01, and 0.001 μM. Moreover, each dilution was further diluted 33.3-fold with an assay buffer to prepare a test substance solution. The composition of the assay buffer was 50 mM HEPES (pH 7.0), 0.02% NaN3, 0.01% Bovine Serum Albumin, 0.1 mM Orthovanadate, 1 mM Dithiothreitol, and 5 mM MgCl2.
5 μL of each test substance solution was added to 384-well plates (n=2), and then 2.5 μL of a substrate solution (substrate 3-biotin (Cisbio Bioassays SAS), final concentration in the reaction solution: 0.5 μM) and 2.5 μL of an ATP solution (in the cases of PIM1, 2, 3, the final concentrations in the reaction solutions were 40, 2, and 10 μM, respectively) were added, 5 μL of each of PIM1, 2, 3 serine/threonine kinase solutions (Carna Bioscience, Inc., the final concentrations in the reaction solutions were 0.15, 1.6, and 0.25 μg/ml, respectively) was finally added, and the mixture was reacted at 30° C. for 30 minutes. The test substance concentrations in the reaction solutions are 10000, 3000, 1000, 300, 100, 30, 10, 3, 1, 0.3, 0.1, and 0.01 nM.
Thereafter, 15 μL of each detection solution (62.5 nM Streptavidin-XL665 (Cisbio Bioassays SAS), […] STK antibody-Cryptate (Cisbio Bioassays SAS), 50 mM HEPES (pH 7.0), 0.8 M KF, 0.1% Bovine Serum Albumin, 20 mM ethylenediaminetetraacetic acid) was added to each well. After stirring, the mixture was reacted at 30° C. for 1 hour. Absorbance (OD620, OD665) at 620 and 665 nm was measured with a microplate reader (SpectraMax M5e, Molecular Devices, LLC).
Non-linear regression analysis was performed by an SAS system (SAS Institute Inc.) using the ratio (OD665/OD620) of the measured absorbance to calculate a test substance concentration (IC50) that inhibits PIM1 serine/threonine kinase activity by 50%.

[2] = molecular target: PIM1 transgenic cells (Ba/F3) (Homo sapiens, UniProt P11309); assay: Proliferation inhibitory effect on PIM1 transgenic cells; assay type: cell-based, mouse; conditions: proliferation inhibition, 72 hours, Cell Counting Kit-8, read-out: PIM1 IC50
From the text: Human PIM1, 2, and 3 genes were inserted into the multi-cloning sites of retrovirus expression vectors pMYs-IRES-GFP, respectively, to prepare gene transfer vectors. Then, each gene transfer vector was introduced into packaging cells PLAT-E derived from a human fetal kidney cell line in the logarithmic growth phase, using a transfection reagent (FuGENE6, Promega Corporation). Since the culture supernatant of PLAT-E after gene transfer contained virus particles for gene transfer, the culture supernatant was collected and used as a medium for gene transfer. The medium for gene transfer was added to a plate coated with RetroNectin, and the plate was incubated to attach the virus particles to the plate. Then, a mouse pro-B cell line Ba/F3 in the logarithmic growth phase was seeded on the plate and infected with the virus to prepare PIM1, 2, or 3 transgenic cells that proliferate in a PIM 1, 2, or 3-dependent manner. The expression of PIM1, 2, or 3 protein in each cell was confirmed by Western blotting.
Each test substance was prepared to 10 mM with dimethylsulfoxide (DMSO), and diluted with DMSO so as to have concentrations of 3000, 1000, 300, 100, 30, 10, 3, and 1 μM. Moreover, each dilution was further diluted 10-fold with distilled water to prepare a test substance solution.
PIM1, 2, 3-expressing cells were seeded on a 96-well plate, and each test substance solution prepared the next day was added such that final concentrations were 10000, 3000, 1000, 300, 100, 30, 10, 3, and 1 nM. 72 hours after the addition, 10 μL of Cell Counting Kit-8 (DOJINDO LABORATORIES) was added to each well. After incubation for 1 to 4 hours, absorbance OD450 at 450 nm was measured. In addition, absorption OD650 at 650 nm as a reference wavelength was measured.
OD450-OD650 for each condition was calculated, and then the inhibition rates when OD450-OD650 of negative control (DMSO only) and OD450-OD650 of Blank (without cells) were set to 0% and 100%, respectively, were calculated. Then, non-linear regression analysis was performed for logarithmic dose and inhibition rate using a two-parameter logistic model to estimate IC50 values.

PIM1 transgenic cells (Ba/F3), sequence (P11309 whole entry, stated change not applied): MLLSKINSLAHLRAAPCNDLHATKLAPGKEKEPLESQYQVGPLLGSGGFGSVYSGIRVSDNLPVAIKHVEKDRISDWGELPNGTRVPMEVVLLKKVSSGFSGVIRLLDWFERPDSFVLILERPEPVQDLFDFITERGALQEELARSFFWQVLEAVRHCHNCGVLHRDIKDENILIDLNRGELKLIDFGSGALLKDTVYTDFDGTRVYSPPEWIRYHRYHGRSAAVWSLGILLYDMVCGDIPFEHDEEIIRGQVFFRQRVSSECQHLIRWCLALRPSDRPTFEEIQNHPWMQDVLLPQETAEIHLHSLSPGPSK
T1 sequence (P11309 whole entry): as the sequence (P11309 whole entry, stated change not applied) above

| SMILES | IC50 [1] [µM] | GI50 [2] [µM] |
| --- | --- | --- |
| C[C@H](Nc1cc(-c2n[nH]c(=O)o2)cc(Cl)c1Cl)C1CCNCC1 [Example 79, 5-(3,4-dichloro-5-{[(1S)-1-(piperidin-4-yl)ethyl]amino}phenyl)-1,3,4-oxadiazol-2(3H)-one dihydrochloride] | 0.0008 | 0.053 |
| C[C@H](Nc1cc(-c2n[nH]c(=O)o2)cc(N)c1Cl)C1CCNCC1 [Example 92, 5-(3-amino-4-chloro-5-{[(1S)-1-(piperidin-4-yl)ethyl]amino}phenyl)-1,3,4-oxadiazol-2(3H)-one dihydrochloride] | 0.0026 | 0.28 |
| C[C@@H]1CNCC[C@@H]1[C@H](C)Nc1cc(-c2n[nH]c(=O)o2)ccc1OC(F)F [Example 220, 5-[4-(difluoromethoxy)-3-({(1S)-1-[(3S,4S)-3-methylpiperidin-4-yl]ethyl}amino)phenyl]-1,3,4-oxadiazol-2(3H)-one] | 0.0061 | 0.11 |
| C[C@H](Nc1cc(-c2n[nH]c(=O)o2)ccc1Cl)[C@H]1CC[C@H](N)CC1 [Example 148, 5-[3-({(1S)-1-[(1r,4S)-4-aminocyclohexyl]ethyl}amino)-4-chlorophenyl]-1,3,4-oxadiazol-2(3H)-one hydrochloride] | 0.0037 | 0.045 |
| C[C@H](Nc1cc(-c2n[nH]c(=O)o2)ccc1C(F)(F)F)[C@H]1CCC[C@@H](N)C1 [Example 194, 5-[3-({(1S)-1-[(1S,3R)-3-aminocyclohexyl]ethyl}amino)-4-(trifluoromethyl)phenyl]-1,3,4-oxadiazol-2(3H)-one hydrochloride] | 0.012 | 0.28 |
| C[C@@H]([C@H]1CC[C@H](N)CC1)N1CCOc2ccc(-c3n[nH]c(=O)o3)cc21 [Example 247, 5-(4-{(1S)-1-[(1r,4S)-4-aminocyclohexyl]ethyl}-3,4-dihydro-2H-1,4-benzoxazin-6-yl)-1,3,4-oxadiazol-2(3H)-one] | 0.0028 | 0.12 |
| C[C@H](Nc1cc(-c2n[nH]c(=O)o2)cc(C(F)(F)F)c1Cl)[C@H]1C[C@@H](N)C1 [Example 183, 5-[3-({(1S)-1-[(1s,3R)-3-aminocyclobutyl]ethyl}amino)-4-chloro-5-(trifluoromethyl)phenyl]-1,3,4-oxadiazol-2(3H)-one hydrochloride] | 0.0018 | 0.045 |
| CC(=O)N[C@H]1C[C@@H](CNc2cc(-c3n[nH]c(=O)o3)ccc2C(F)(F)F)C1(C)C [Example 184, N-[(1S,3R)-2,2-dimethyl-3-{[5-(5-oxo-4,5-dihydro-1,3,4-oxadiazol-2-yl)-2-(trifluoromethyl)anilino]methyl}cyclobutyl]acetamide] | 0.065 | 0.88 |
| O=c1[nH]nc(-c2ccc(C(F)(F)F)c(N[C@@H]3CCC34CCNCC4)c2)o1 [Example 46, 5-[3-{[(1R)-7-azaspiro[3.5]nonan-1-yl]amino}-4-(trifluoromethyl)phenyl]-1,3,4-oxadiazol-2(3H)-one hydrochloride] | 0.29 | 2.6 |
| C[C@@H](Nc1cc(-c2n[nH]c(=O)o2)ccc1C(F)(F)F)[C@H]1CC[C@H](N)CC1 [Example 111, 5-[3-({(1R)-1-[(1r,4R)-4-aminocyclohexyl]ethyl}amino)-4-(trifluoromethyl)phenyl]-1,3,4-oxadiazol-2(3H)-one hydrochloride] | 0.0064 | 0.14 |
| CN(CC1CCNCC1)c1cc(-c2n[nH]c(=O)o2)ccc1C(F)(F)F [Example 51, 5-[3-{methyl[(piperidin-4-yl)methyl]amino}-4-(trifluoromethyl)phenyl]-1,3,4-oxadiazol-2(3H)-one hydrochloride] | 0.014 | 3.1 |
| N[C@H]1CC[C@H](Nc2cc(-c3n[nH]c(=O)o3)ccc2Cl)CC1 [Example 32, 5-(3-{[(1r,4r)-4-aminocyclohexyl]amino}-4-chlorophenyl)-1,3,4-oxadiazol-2(3H)-one] | 0.0057 | 0.41 |
| O=c1[nH]nc(-c2ccc(C(F)(F)F)c(N3CCC4(CC3)CNC4)c2)o1 [Example 16, 5-[3-(2,7-diazaspiro[3.5]nonan-7-yl)-4-(trifluoromethyl)phenyl]-1,3,4-oxadiazol-2(3H)-one hydrochloride] | 0.053 | 2.4 |
| NCCCCNc1cc(-c2n[nH]c(=O)o2)ccc1C(F)(F)F [Example 1, 5-{3-[(4-aminobutyl)amino]-4-(trifluoromethyl)phenyl}-1,3,4-oxadiazol-2(3H)-one hydrochloride] | 0.015 | 1.9 |

The remaining lines, values ahead:

| IC50 [1] [µM] | GI50 [2] [µM] | SMILES |
| --- | --- | --- |
| 0.0034 | 0.037 | CCc1c(F)cc(-c2n[nH]c(=O)o2)cc1N[C@@H](C)[C@H]1CC[C@H](N)CC1 [Example 231, 5-[3-({(1S)-1-[(1r,4S)-4-aminocyclohexyl]ethyl}amino)-4-ethyl-5-fluorophenyl]-1,3,4-oxadiazol-2(3H)-one hydrochloride] |
| 0.0049 | 0.51 | N[C@H]1CC[C@H](Nc2cc(-c3n[nH]c(=O)o3)ccc2Br)CC1 [Example 35, 5-(3-{[(1r,4r)-4-aminocyclohexyl]amino}-4-bromophenyl)-1,3,4-oxadiazol-2(3H)-one hydrochloride] |
| 0.0072 | 0.046 | C[C@@H]1CNCC[C@@H]1[C@H](C)Nc1cc(-c2n[nH]c(=O)o2)ccc1Cl [Example 221, 5-[4-chloro-3-({(1S)-1-[(3S,4S)-3-methylpiperidin-4-yl]ethyl}amino)phenyl]-1,3,4-oxadiazol-2(3H)-one] |
| 0.0022 | 0.15 | N[C@H]1CC[C@@H](CNc2cc(-c3n[nH]c(=O)o3)ccc2C(F)(F)F)CC1 [Example 74, 5-[3-({[(1s,4s)-4-aminocyclohexyl]methyl}amino)-4-(trifluoromethyl)phenyl]-1,3,4-oxadiazol-2(3H)-one hydrochloride] |
| 0.05 | 3 | NCCCCCCNc1cc(-c2n[nH]c(=O)o2)ccc1C(F)(F)F [Example 4, 5-{3-[(6-aminohexyl)amino]-4-(trifluoromethyl)phenyl}-1,3,4-oxadiazol-2(3H)-one] |
| 0.0043 | 0.6 | CC(CC1CCNCC1)Nc1cc(-c2n[nH]c(=O)o2)ccc1C(F)(F)F (centres unmarked) [Example 81, 5-[3-{[1-(piperidin-4-yl)propan-2-yl]amino}-4-(trifluoromethyl)phenyl]-1,3,4-oxadiazol-2(3H)-one hydrochloride] |
| 0.01 | 0.27 | O=c1[nH]nc(-c2ccc(C(F)(F)F)c(NC3CC34CCNCC4)c2)o1 (centres unmarked) [Example 42, 5-{3-[(6-azaspiro[2.5]octan-1-yl)amino]-4-(trifluoromethyl)phenyl}-1,3,4-oxadiazol-2(3H)-one hydrochloride] |
| 0.0047 | 0.61 | C[C@H](Nc1cc(-c2n[nH]c(=O)o2)ccc1C#N)C1CCNCC1 [Example 85, 4-(5-oxo-4,5-dihydro-1,3,4-oxadiazol-2-yl)-2-{[(1S)-1-(piperidin-4-yl)ethyl]amino}benzonitrile hydrochloride] |
